In patent publication US20230123334A1, “AMINO LIPID COMPOUND, PREPARATION METHOD THEREFOR, AND APPLICATION THEREOF” (SHENZHEN SHENXIN BIOTECHNOLOGY CO., LTD., priority 2020, published 2023):

Test system: HEK293 cells
Experiment: Preliminary screening as mRNA vectors, EGFP mRNA transfection of HEK293 cells
Assay type: cell-based
Settings: EGFP mRNA 50 ng per well, 96-well plates; percentage of GFP fluorescent cells relative to total number of cells (Hoechst)
How it was run: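 Screening format: EGFP mRNA transfection (50 ng/well) into HEK293 in 10% FBS-supplemented DMEM. Percent green fluorescent cells, normalised to Hoechst nuclear count, gave the value; Lipofectamine2000 was the reference transfectant.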

SMILES	Absolute mRNA transfection efficiency in HEK293 cells [%]
CCCCCCCCCCCCCNc1nc(NCCN(CC)CC)nc(SCCCCCCCCCCCC)n1 [Compound D7S12N13]	4.9
CCCCCCCCCCCCCCCNc1nc(NCCN(CC)CC)nc(SCCCCCCCCCCCC)n1 [Compound D7S12N15]	1.3
CCCCCCCCCCCCCCCCNc1nc(NCCN(CC)CC)nc(SCCCCCCCCCCCC)n1 [Compound D7S12N16]	6.3
CCCCCCCCCCCCCCCCCCNc1nc(NCCN(CC)CC)nc(SCCCCCCCCCCCC)n1 [Compound D7S12N18]	1.1
CCCCCCCCCCCCCCSc1nc(NCCCCCC)nc(NCCN(CC)CC)n1 [Compound D7S14N6]	15.7
CCCCCCCCCCCCCCSc1nc(NCCCCCCC)nc(NCCN(CC)CC)n1 [Compound D7S14N7]	36.3
CCCCCCCCCCCCCCSc1nc(NCCCCCCCC)nc(NCCN(CC)CC)n1 [Compound D7S14N8]	10.8
CCCCCCCCCCCCCCSc1nc(NCCCCCCCCC)nc(NCCN(CC)CC)n1 [Compound D7S14N9]	29.8
CCCCCCCCCCCCCCSc1nc(NCCCCCCCCCCC)nc(NCCN(CC)CC)n1 [Compound D7S14N11]	17.0
CCCCCCCCCCCCCCSc1nc(NCCCCCCCCCCCC)nc(NCCN(CC)CC)n1 [Compound D7S14N12]	6.6
CCCCCCCCCCCCCCSc1nc(NCCCCCCCCCCCCC)nc(NCCN(CC)CC)n1 [Compound D7S14N13]	11.7
CCCCCCCCCCCCCCCNc1nc(NCCN(CC)CC)nc(SCCCCCCCCCCCCCC)n1 [Compound D7S14N15]	0.8
CCCCCCCCCCCCCCCCNc1nc(NCCN(CC)CC)nc(SCCCCCCCCCCCCCC)n1 [Compound D7S14N16]	2.7
CCCCCCCCCCCCCCCCCCNc1nc(NCCN(CC)CC)nc(SCCCCCCCCCCCCCC)n1 [Compound D7S14N18]	0.4
CCCCCCCCCCCCCCCSc1nc(NCCCCCC)nc(NCCN(CC)CC)n1 [Compound D7S15N6]	2.7
CCCCCCCCCCCCCCCSc1nc(NCCCCCCC)nc(NCCN(CC)CC)n1 [Compound D7S15N7]	27.8
CCCCCCCCCCCCCCCSc1nc(NCCCCCCCC)nc(NCCN(CC)CC)n1 [Compound D7S15N8]	18.0
CCCCCCCCCCCCCCCSc1nc(NCCCCCCCCC)nc(NCCN(CC)CC)n1 [Compound D7S15N9]	9.4
CCCCCCCCCCCCCCCSc1nc(NCCCCCCCCCCC)nc(NCCN(CC)CC)n1 [Compound D7S15N11]	5.0
CCCCCCCCCCCCCCCSc1nc(NCCCCCCCCCCCC)nc(NCCN(CC)CC)n1 [Compound D7S15N12]	4.7
CCCCCCCCCCCCCCCSc1nc(NCCCCCCCCCCCCC)nc(NCCN(CC)CC)n1 [Compound D7S15N13]	5.2
CCCCCCCCCCCCCCCNc1nc(NCCN(CC)CC)nc(SCCCCCCCCCCCCCCC)n1 [Compound D7S15N15]	1.8

SMILES	Absolute mRNA transfection efficiency in HEK293 cells [%]
CCCCCCCCCCCCCCCCNc1nc(NCCN(CC)CC)nc(SCCCCCCCCCCCCCCC)n1 [Compound D7S15N16]	0.5
CCCCCCCCCCCCCCCCCCNc1nc(NCCN(CC)CC)nc(SCCCCCCCCCCCCCCC)n1 [Compound D7S15N18]	0.8
CCCCCCCCCCCCCCCCSc1nc(NCCCCCC)nc(NCCN(CC)CC)n1 [Compound D7S16N6]	16.5
CCCCCCCCCCCCCCCCSc1nc(NCCCCCCC)nc(NCCN(CC)CC)n1 [Compound D7S16N7]	7.8
CCCCCCCCCCCCCCCCSc1nc(NCCCCCCCC)nc(NCCN(CC)CC)n1 [Compound D7S16N8]	6.5
CCCCCCCCCCCCCCCCSc1nc(NCCCCCCCCC)nc(NCCN(CC)CC)n1 [Compound D7S16N9]	9.0
CCCCCCCCCCCCCCCCSc1nc(NCCCCCCCCCCC)nc(NCCN(CC)CC)n1 [Compound D7S16N11]	8.3
CCCCCCCCCCCCCCCCSc1nc(NCCCCCCCCCCCC)nc(NCCN(CC)CC)n1 [Compound D7S16N12]	1.3
CCCCCCCCCCCCCCCCSc1nc(NCCCCCCCCCCCCC)nc(NCCN(CC)CC)n1 [Compound D7S16N13]	2.9
CCCCCCCCCCCCCCCCSc1nc(NCCCCCCCCCCCCCCC)nc(NCCN(CC)CC)n1 [Compound D7S16N15]	1.1
CCCCCCCCCCCCCCCCNc1nc(NCCN(CC)CC)nc(SCCCCCCCCCCCCCCCC)n1 [Compound D7S16N16]	1.6
CCCCCCCCCCCCCCCCCCNc1nc(NCCN(CC)CC)nc(SCCCCCCCCCCCCCCCC)n1 [Compound D7S16N18]	1.5
CCCCCCCCCCCCCCCCCCSc1nc(NCCCCCC)nc(NCCN(CC)CC)n1 [Compound D7S18N6]	19.5
CCCCCCCCCCCCCCCCCCSc1nc(NCCCCCCC)nc(NCCN(CC)CC)n1 [Compound D7S18N7]	6.5
CCCCCCCCCCCCCCCCCCSc1nc(NCCCCCCCC)nc(NCCN(CC)CC)n1 [Compound D7S18N8]	9.8
CCCCCCCCCCCCCCCCCCSc1nc(NCCCCCCCCC)nc(NCCN(CC)CC)n1 [Compound D7S18N9]	1.9
CCCCCCCCCCCCCCCCCCSc1nc(NCCCCCCCCCCC)nc(NCCN(CC)CC)n1 [Compound D7S18N11]	10.7
CCCCCCCCCCCCCCCCCCSc1nc(NCCCCCCCCCCCC)nc(NCCN(CC)CC)n1 [Compound D7S18N12]	0.3
CCCCCCCCCCCCCCCCCCSc1nc(NCCCCCCCCCCCCC)nc(NCCN(CC)CC)n1 [Compound D7S18N13]	1.5
CCCCCCCCCCCCCCCCCCSc1nc(NCCCCCCCCCCCCCCC)nc(NCCN(CC)CC)n1 [Compound D7S18N15]	0.3
CCCCCCCCCCCCCCCCCCSc1nc(NCCCCCCCCCCCCCCCC)nc(NCCN(CC)CC)n1 [Compound D7S18N16]	0.3
CCCCCCCCCCCCCCCCCCNc1nc(NCCN(CC)CC)nc(SCCCCCCCCCCCCCCCCCC)n1 [Compound D7S18N18]	0.0
